In paper PMC3236199, “Development of Derivatives of 3, 3′-Diindolylmethane as Potent Leishmania donovani Bi-Subunit Topoisomerase IB Poisons” (PLoS ONE, 2011):

Columns and labels:
LdTOP1LS = assay: Plasmid cleavage assay; assay type: biochemical, Leishmania donovani; settings: 50 µM, pHOT1 DNA
Procedure: Cleavage assay was carried out as described previously. Briefly, 50 fmol of pHOT1 supercoiled DNA (containing topoisomerase I cleavage site) and 100 fmol of reconstituted LdTOP1LS were incubated in standard reaction mixture (50 µl) containing 50 mM Tris/HCl (pH 7.5), 100 mM KCl, 10 mM MgCl2, 0.5 mM DTT, 0.5 mM EDTA and 30 µg/ml BSA in the presence of various concentrations of drugs at 37°C for 30 min. The reactions were terminated by adding 1% SDS and 150 µg/ml proteinase K and further incubated for 1 h at 37°C. DNA samples were electrophoresed in a 1% agarose gel containing 0.5 µg/ml EtBr.
The effect of DIM and its derivatives on L. donovani topoisomerase I was examined by plasmid DNA cleavage assay as described. The topoisomerase reaction has three general mechanistic steps: (i) binding of enzyme to the substrate DNA, (ii) single strand breakage and subsequent strand rotation through the break leading to change in linking number, and (iii) strand religation. The second step of reaction is the introduction of a single-stranded nick in the phosphodiester bond of the DNA, through which an intact strand is allowed to pass. […]

[1] = test system: L. donovani topoisomerase I; assay: Immunoband depletion assay, topoisomerase I; assay type: cell-based, Leishmania donovani; settings: preincubation with 20 µM DHBA before DIM, DPDIM, DMDIM or DMODIM
Procedure: Leishmania cells (3×10^7) were cultured in absence and presence of the drugs. Nuclear fractions were isolated as described. Briefly, cells were suspended in hypotonic buffer (10 mM Tris-HCl, pH 7.5, 1 mM EDTA, 0.1 mM EGTA, 1 mM PMSF, 1 mM benzamidine hydrochloride and 5 mM DTT) and homogenized. The homogenate was centrifuged for 10 min at 10,000 g. The pellets were washed and used as the source of nuclear fraction. Thereafter, the nuclear fractions were lysed with 1% SDS and subjected to SDS-PAGE (10%). The proteins were electrophoretically transferred to nitrocellulose membranes and immumobloting of immobilized proteins were carried out using a rabbit polyclonal antibody raised against LdTOP1S for topoisomerase I and ATPase domain of L. donovani topoisomerase II [8].
We have reported earlier that DIM induces topoisomerase I and not topoisomerase II-mediated cleavable complex formation in L. donovani. To investigate the ability of DIM derivatives to induce in vivo covalent complex formation between topoisomerase I and DNA in the Leishmania parasites we performed the immunoband depletion experiments with L. donovani promastigotes. Nuclear fractions were prepared from untreated as well as drug-treated promastigotes and subjected to SDS-PAGE. If topoisomerase I can form a covalent complex with genomic DNA inside the cells, then topoisomerase I-DNA cleavable complex cannot enter into the gel. […] The presence of topoisomerase I was detected by immunoblotting as described in ‘Materials and Methods’. It was observed that the immunoband of topoisomerase I disappeared in presence of 20 µM of DIM, DPDIM, DMDIM and DMODIM for 6 h incubation respectively (lanes 2–5). […] It should be mentioned here that topoisomerase I of Leishmania is a heterodimer and the catalytic site (SKXXY) is present in the small subunit of enzyme (LdTOP1S), which is involved in the formation of topoisomerase I-DNA covalent complex. So we have used the antibody raised against the small subunit of L. donovani topoisomerase I to study the immunoband depletion assay.
Figure 6 DIM-derivatives induce in vivo formation of topoisomerase-DNA cleavable complex within the cells. Stabilization of topoisomerase-I mediated cleavable complex was determined by immunoband depletion assay. Top panel: Immunoband depletion of L. donovani topoisomerase I, using an antibody raised against […]. Leishmanial cells were treated with 0.2% DMSO alone (lane 1), 20 µM each of DIM (lane 2), DPDIM (lane 3), DMDIM (lane 4) and DMODIM (lane 5) respectively. Lanes 6–9, preincubation with 20 µM DHBA before treatment with DIM, DPDIM, DMDIM and DMODIM respectively. Bottom panel: β-tubulin loading control.

Compound | conversion of closed circular DNA (form I) to nicked circular DNA (form II) (LdTOP1LS) | immunoband of topoisomerase I after preincubation before treatment with drugs [1]
CC[C@@]1(O)C(=O)OCc2c1cc1n(c2=O)Cc2cc3ccccc3nc2-1 [CPT, camptothecin, reference compound] | totally converted to nicked circular DNA | –
CC(C)[C@@H]1CC[C@]2(C(=O)O)CC[C@]3(C)C(CCC4[C@@]5(C)CC[C@H](O)C(C)(C)C5CC[C@]43C)C12 (some centres unmarked) [DHBA, reference compound] | – | reappearance of immunoband
